Where a SMILES comes first, the peptide text is derived from it. Bridges are numbered along the chain shown (N, C = ends).
Key:
rNaV1.2 = rNaV1.2 (Rattus norvegicus, UniProt P04775); assay: Two-electrode voltage-clamp on Xenopus laevis oocytes expressing NaV1.2; details: for inhibition at 100 µM: read-out: Maximum % inhibition NaV1.2, peptide at 100 μM
rNaV1.4 = rNaV1.4 (Rattus norvegicus, UniProt P15390); assay: Two-electrode voltage-clamp on Xenopus laevis oocytes expressing NaV1.4; details: for inhibition at 100 µM: read-out: Maximum % inhibition NaV1.4, peptide at 100 μM
hNaV1.5 = hNaV1.5 (Homo sapiens, UniProt Q14524); assay: Two-electrode voltage-clamp on Xenopus laevis oocytes expressing NaV1.5; details: for inhibition at 100 µM: read-out: Maximum % inhibition NaV1.5
mNaV1.6 = mNaV1.6 (Mus musculus, UniProt Q9WTU3); assay: Two-electrode voltage-clamp on Xenopus laevis oocytes expressing NaV1.6; details: for inhibition at 100 µM: read-out: Maximum % inhibition NaV1.6, peptide at 100 μM
rNaV1.8 = rNaV1.8 (Rattus norvegicus, UniProt Q62968); assay: Two-electrode voltage-clamp on Xenopus laevis oocytes expressing NaV1.8; details: for inhibition at 100 µM: read-out: Maximum % inhibition NaV1.8
Sequence of rNaV1.8 (Q62968 whole entry): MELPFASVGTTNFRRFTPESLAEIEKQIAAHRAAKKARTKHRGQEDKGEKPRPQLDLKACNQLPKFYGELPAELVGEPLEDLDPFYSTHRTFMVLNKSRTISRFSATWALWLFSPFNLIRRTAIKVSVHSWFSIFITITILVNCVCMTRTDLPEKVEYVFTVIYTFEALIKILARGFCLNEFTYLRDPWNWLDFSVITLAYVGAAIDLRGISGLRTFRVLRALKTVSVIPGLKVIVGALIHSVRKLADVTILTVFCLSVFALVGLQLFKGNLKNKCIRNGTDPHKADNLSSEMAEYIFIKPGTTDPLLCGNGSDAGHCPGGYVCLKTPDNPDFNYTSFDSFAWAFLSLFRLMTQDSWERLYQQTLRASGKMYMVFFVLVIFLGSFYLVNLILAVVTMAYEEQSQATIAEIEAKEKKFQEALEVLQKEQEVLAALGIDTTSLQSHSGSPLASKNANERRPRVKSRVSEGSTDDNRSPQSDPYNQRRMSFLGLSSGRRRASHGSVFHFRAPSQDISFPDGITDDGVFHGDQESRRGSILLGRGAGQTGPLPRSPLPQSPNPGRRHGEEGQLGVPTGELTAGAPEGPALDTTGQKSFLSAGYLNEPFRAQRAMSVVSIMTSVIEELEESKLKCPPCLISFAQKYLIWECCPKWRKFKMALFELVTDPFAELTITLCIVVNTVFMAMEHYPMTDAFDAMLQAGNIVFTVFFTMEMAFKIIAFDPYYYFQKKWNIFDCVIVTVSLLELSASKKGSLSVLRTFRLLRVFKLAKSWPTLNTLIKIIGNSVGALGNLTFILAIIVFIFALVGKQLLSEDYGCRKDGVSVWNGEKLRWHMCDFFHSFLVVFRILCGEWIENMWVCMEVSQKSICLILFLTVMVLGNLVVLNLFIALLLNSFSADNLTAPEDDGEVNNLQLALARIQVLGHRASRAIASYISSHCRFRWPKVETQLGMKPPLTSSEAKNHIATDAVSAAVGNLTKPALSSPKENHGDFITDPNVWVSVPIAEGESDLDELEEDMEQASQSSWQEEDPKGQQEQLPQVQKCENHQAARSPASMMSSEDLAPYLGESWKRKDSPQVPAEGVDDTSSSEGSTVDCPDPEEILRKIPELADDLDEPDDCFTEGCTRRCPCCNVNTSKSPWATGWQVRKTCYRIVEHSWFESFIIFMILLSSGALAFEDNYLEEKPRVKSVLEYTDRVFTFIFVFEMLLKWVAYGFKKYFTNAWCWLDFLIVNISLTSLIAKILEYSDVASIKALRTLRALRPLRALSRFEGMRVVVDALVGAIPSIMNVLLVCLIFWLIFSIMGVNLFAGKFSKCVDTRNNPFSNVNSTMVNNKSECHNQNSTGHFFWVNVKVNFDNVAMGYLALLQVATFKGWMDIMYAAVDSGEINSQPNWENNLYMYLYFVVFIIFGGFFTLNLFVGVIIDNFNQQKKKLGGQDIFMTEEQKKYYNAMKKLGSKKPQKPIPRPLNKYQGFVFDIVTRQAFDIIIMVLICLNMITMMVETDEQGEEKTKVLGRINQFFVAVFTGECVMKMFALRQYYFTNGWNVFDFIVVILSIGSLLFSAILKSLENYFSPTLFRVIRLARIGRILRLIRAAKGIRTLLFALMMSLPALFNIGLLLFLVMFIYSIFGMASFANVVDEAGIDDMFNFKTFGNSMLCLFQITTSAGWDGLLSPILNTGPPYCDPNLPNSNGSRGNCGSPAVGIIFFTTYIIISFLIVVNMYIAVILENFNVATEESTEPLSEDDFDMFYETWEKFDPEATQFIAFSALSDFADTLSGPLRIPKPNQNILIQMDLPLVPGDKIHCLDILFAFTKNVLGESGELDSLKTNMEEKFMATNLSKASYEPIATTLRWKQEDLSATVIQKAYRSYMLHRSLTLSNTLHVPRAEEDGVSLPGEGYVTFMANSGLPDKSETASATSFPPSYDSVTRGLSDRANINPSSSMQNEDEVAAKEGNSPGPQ

[1] = system: NaV1.2, NaV1.4, NaV1.5 and NaV1.6; details: 100 μM
hNaV1.1 = hNaV1.1 (Homo sapiens, UniProt P35498); assay: Two-electrode voltage-clamp on Xenopus laevis oocytes expressing NaV1.1
rNaV1.3 = rNaV1.3 (Rattus norvegicus, UniProt P08104); assay: Two-electrode voltage-clamp on Xenopus laevis oocytes expressing NaV1.3
rNaV1.7 = rNaV1.7 (Rattus norvegicus, UniProt O08562); assay: Two-electrode voltage-clamp on Xenopus laevis oocytes expressing NaV1.7
inflammatory pain models = details: in vivo; cited from earlier work

Sequence of rNaV1.2 (P04775 whole entry): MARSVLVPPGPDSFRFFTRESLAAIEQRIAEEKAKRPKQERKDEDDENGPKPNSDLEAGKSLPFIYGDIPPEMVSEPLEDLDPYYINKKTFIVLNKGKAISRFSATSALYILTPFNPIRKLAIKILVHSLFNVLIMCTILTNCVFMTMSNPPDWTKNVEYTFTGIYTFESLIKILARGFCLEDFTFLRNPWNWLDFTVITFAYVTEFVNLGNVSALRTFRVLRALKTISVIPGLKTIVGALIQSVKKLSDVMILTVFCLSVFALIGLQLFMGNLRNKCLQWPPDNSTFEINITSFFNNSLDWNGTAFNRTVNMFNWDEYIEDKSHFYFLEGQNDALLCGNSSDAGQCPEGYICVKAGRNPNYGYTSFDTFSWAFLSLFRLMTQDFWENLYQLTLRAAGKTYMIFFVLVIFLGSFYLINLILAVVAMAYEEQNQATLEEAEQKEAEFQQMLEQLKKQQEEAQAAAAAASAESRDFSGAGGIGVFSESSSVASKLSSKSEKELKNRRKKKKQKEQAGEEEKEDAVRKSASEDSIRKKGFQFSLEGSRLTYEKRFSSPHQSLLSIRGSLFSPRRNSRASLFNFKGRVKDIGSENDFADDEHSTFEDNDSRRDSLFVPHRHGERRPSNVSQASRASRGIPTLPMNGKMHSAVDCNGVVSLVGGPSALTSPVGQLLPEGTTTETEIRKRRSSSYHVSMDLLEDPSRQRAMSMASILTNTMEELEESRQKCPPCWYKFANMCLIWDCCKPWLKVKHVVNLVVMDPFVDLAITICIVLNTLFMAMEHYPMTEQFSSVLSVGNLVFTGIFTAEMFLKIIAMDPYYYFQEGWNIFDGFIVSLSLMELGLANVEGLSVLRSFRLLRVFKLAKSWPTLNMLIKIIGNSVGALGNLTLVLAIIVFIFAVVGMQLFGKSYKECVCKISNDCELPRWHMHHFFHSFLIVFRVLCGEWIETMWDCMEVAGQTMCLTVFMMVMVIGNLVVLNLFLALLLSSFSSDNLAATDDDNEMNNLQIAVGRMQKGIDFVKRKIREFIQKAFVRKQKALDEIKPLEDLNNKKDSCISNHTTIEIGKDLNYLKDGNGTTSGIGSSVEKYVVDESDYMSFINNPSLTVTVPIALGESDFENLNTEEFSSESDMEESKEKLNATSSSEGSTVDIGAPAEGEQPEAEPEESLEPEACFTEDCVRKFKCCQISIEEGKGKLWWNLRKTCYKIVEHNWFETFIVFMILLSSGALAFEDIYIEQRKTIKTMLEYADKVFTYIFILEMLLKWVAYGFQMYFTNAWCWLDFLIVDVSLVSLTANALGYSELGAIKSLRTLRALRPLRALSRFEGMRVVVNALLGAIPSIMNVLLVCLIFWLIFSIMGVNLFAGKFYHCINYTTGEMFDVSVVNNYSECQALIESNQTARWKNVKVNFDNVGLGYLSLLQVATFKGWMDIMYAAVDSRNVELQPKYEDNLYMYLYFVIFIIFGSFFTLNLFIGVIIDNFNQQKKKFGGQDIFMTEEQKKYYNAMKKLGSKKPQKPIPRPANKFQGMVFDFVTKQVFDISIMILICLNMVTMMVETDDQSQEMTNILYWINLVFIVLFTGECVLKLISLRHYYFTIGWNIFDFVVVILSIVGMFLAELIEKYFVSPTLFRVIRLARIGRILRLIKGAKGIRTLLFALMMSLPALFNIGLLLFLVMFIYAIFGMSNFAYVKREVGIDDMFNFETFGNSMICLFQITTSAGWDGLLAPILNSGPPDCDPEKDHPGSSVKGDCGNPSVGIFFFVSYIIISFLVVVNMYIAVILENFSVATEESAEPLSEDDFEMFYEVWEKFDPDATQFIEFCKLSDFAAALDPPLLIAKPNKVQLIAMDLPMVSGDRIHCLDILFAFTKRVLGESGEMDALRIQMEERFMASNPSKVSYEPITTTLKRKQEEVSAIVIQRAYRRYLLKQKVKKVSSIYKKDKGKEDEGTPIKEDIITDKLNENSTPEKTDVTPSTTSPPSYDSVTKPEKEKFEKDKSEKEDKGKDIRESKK
Sequence of rNaV1.2 (Q00954 19-218, further chain): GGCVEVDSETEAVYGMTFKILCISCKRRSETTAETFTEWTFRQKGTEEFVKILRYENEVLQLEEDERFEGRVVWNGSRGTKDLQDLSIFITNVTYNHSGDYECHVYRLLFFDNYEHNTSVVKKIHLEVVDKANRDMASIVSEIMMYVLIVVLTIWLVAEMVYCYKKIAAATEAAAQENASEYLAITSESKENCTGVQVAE

## C[C@@H]1NC(=O)[C@H](Cc2ccc(O)cc2)NC(=O)[C@H](CCCNC(=N)N)NC(=O)[C@H](CCCNC(=N)N)NC(=O)[C@@H](N)CSSC[C@@H](C(N)=O)NC(=O)[C@H](CCCNC(=N)N)NC(=O)[C@H](CC(N)=O)NC(=O)[C@H](Cc2c[nH]c3ccccc23)NC(=O)[C@H](CCCNC(=N)N)NC1=O [PnCS1[W4Y], CRRYARWNRC ^*] (H-CRRYARWNRC-NH2; disulfide 1-10)
rNaV1.2
  IC50: > 100 µM
  inhibition at 100 µM: 39%
rNaV1.4
  IC50: > 100 µM
  inhibition at 100 µM: 33%
hNaV1.5
  IC50: > 100 µM
  inhibition at 100 µM: 43%
mNaV1.6
  IC50: > 100 µM
  inhibition at 100 µM: 42%
rNaV1.8
  IC50: > 100 µM
  inhibition at 100 µM: 0%
[1]
  % inhibition, range across NaV1.2, NaV1.4, NaV1.5 and NaV1.6: 33–43%

## C[C@@H]1NC(=O)[C@H](Cc2c[nH]c3ccccc23)NC(=O)[C@H](CCCNC(=N)N)NC(=O)[C@H](CCCNC(=N)N)NC(=O)[C@@H](N)CSSC[C@@H](C(N)=O)NC(=O)[C@H](CCCNC(=N)N)NC(=O)[C@H](CC(N)=O)NC(=O)[C@H](Cc2ccc(O)cc2)NC(=O)[C@H](CCCNC(=N)N)NC1=O [PnCS1[W7Y], CRRWARYNRC ^*] (H-CRRWARYNRC-NH2; disulfide 1-10)
hNaV1.1
  IC50: 2.2 ± 0.4 µM
rNaV1.2
  IC50: 7.4 ± 4.2 µM
  inhibition at 100 µM: 76%
rNaV1.3
  IC50: 4.1 ± 0.8 µM
rNaV1.4
  IC50: 7.8 ± 3.3 µM
  inhibition at 100 µM: 73%
hNaV1.5
  IC50: 11.7 ± 4.1 µM
  inhibition at 100 µM: 75%
mNaV1.6
  IC50: 0.7 ± 0.3 µM
  inhibition at 100 µM: 93%
rNaV1.7
  IC50: 8.2 ± 0.3 µM
rNaV1.8
  IC50: > 100 µM
  inhibition at 100 µM: 0%
[1]
  % inhibition, range across NaV1.2, NaV1.4, NaV1.5 and NaV1.6: 73–93%

## μ-Conotoxin KIIIA [μ-KIIIA]
Inflammatory pain models
  analgesic activity in inflammatory pain models: analgesic in inflammatory pain models without motor impairment

Source: article PMC9116130 (Biochemical pharmacology, 2020)
